In patent US10450263B2, “Benzo annulenes as antiviral agents” (Southern Research Institute, priority 2017, dated 2019):
Read-outs that look alike come from different tables or passages of the source.

Columns and labels:
Chikungunya virus = test: Evaluation of antiviral activity against Chikungunya virus (EC90); format: cell-based
From the text: EC90 refers to the concentration of the compound that is required for 90% antagonism or inhibition of CHIKV. EC90 also refers to the concentration of a substance that is required for 90% antagonism or inhibition of CHIKV in vivo.
(§1) The compounds below in Table 1 were synthesized with methods identical or analogous to those described herein. The requisite starting materials were commercially available, described in the literature, or readily synthesized by one skilled in the art of organic synthesis.

[1] = CC50 reported alongside the CHIKV antiviral assay (cytotoxicity); format: cell-based; conditions: cell line not given
From the text: as §1

[2] = Chikungunya virus, read-out: EC90 (μM) CHIKV, concentration required for 90% inhibition of CHIKV
[3] = read-out: EC90 (μM) CHIKV, concentration required for 90% inhibition of CHIKV

Compound	EC90 (Chikungunya virus; [2]) [µM]	CC50 [1] [µM]	EC90 (Chikungunya virus; [3]) [µM]	EC90 (Chikungunya virus; concentration required for 90% inhibition of CHIKV, read-out: EC90 (μM) CHIKV) [µM]
COc1cc2c(cc1NC(=O)c1cccc(C(C)(C)C)c1)CCCCC2 [Compound 41, 3-(tert-Butyl)-N-(3-methoxy-6,7,8,9-tetrahydro-5H-benzo[7]annulen-2-yl)benzamide]	34.1	> 30	–	–
COc1cc2c(cc1NC(=O)c1ccc(OC(F)(F)F)cc1)CCCCC2 [Compound 72, N-(3-Methoxy-6,7,8,9-tetrahydro-5H-benzo[7]annulen-2-yl)-4-(trifluoromethoxy)benzamide]	3.3	> 30	–	–
COc1cc2c(cc1N(C)C(=O)c1ccc(C(C)(C)C)cc1)CCCCC2 [Compound 30]	14.5	> 30	–	–
COc1cc2c(cc1NC(=O)c1ccc(C(C)(C)C)o1)CCCCC2 [Compound 37, 5-(tert-Butyl)-N-(3-methoxy-6,7,8,9-tetrahydro-5H-benzo[7]annulen-2-yl)furan-2-carboxamide]	23.2	> 30	–	–
CC(C)(C)c1ccc(C(=O)Nc2cc3c(cc2C(F)(F)F)CCCCC3)cc1 [Compound 14, 4-(tert-butyl)-N-(3-(trifluoromethyl)-6,7,8,9-tetrahydro-5H-benzo[7]annulen-2-yl)benzamide]	> 30	> 30	–	–
COc1cc2c(cc1NC(=O)c1cnc(C(C)(C)C)s1)CCCCC2 [Compound 44, 2-(tert-Butyl)-N-(3-methoxy-6,7,8,9-tetrahydro-5H-benzo[7]annulen-2-yl)thiazole-5-carboxamide]	1.2	> 30	–	–
COc1cc2c(cc1NC(=O)Cc1ccc(C(C)(C)C)cc1)CCCCC2 [Compound 54]	42.9	> 30	–	–
COc1cc2c(cc1NC(=O)c1cn(C)cn1)CCCCC2 [Compound 32, N-(3-methoxy-6,7,8,9-tetrahydro-5H-benzo[7]annulen-2-yl)-1-methyl-1H-imidazole-4-carboxamide]	55.6	> 30	–	–
COc1cc2c(cc1NC(=O)c1ccc(C(C)(C)C)cc1)CCCCN2 [Compound 64, 4-(tert-butyl)-N-(8-methoxy-2,3,4,5-tetrahydro-1H-benzo[b]azepin-7-yl)benzamide]	3.3	> 30	–	–
COc1cc2c(cc1NC(=O)c1ccc(C(C)(C)C)c(F)c1)CCCCC2 [Compound 53, 4-(tert-Butyl)-3-fluoro-N-(3-methoxy-6,7,8,9-tetrahydro-5H-benzo[7]annulen-2-yl)benzamide]	2.24	> 30	–	–
CC(C)(C)c1ncc(C(=O)Nc2ccc3c(c2)CCCCC3)s1 [Compound 25, 2-(tert-butyl)-N-(6,7,8,9-tetrahydro-5H-benzo[7]annulen-2-yl)thiazole-5-carboxamide]	22.6	15.7	–	–
COc1cc2c(cc1NC(=O)c1ccc(C(C)(C)C)cc1)CCCC(=O)N2C(C)C [Compound 63, 4-(tert-butyl)-N-(1-isopropyl-8-methoxy-2-oxo-2,3,4,5-tetrahydro-1H-benzo[b]azepin-7-yl)benzamide]	> 30	> 30	–	–
COc1cc2c(cc1NC(=O)c1ccc(C(C)(C)C)cc1)CCCCN2C [Compound 65, 4-(tert-butyl)-N-(8-methoxy-1-methyl-2,3,4,5-tetrahydro-1H-benzo[b]azepin-7-yl)benzamide]	> 30	> 30	–	–
CN(C(=O)c1ccc(C(C)(C)C)cc1)c1ccc2c(c1)CCCCC2 [Compound 28, 4-(tert-butyl)-N-methyl-N-(6,7,8,9-tetrahydro-5H-benzo[7]annulen-2-yl)benzamide]	> 10	> 30	–	–
COc1cc2c(cc1NC(=O)c1ccc(C3(C(F)(F)F)CC3)cc1)CCCCC2 [Compound 51, N-(3-methoxy-6,7,8,9-tetrahydro-5H-benzo[7]annulen-2-yl)-4-(1-(trifluoromethyl)cyclopropyl)benzamide]	1.3	> 30	–	–
COc1cc2c(cc1NC(=O)c1ccc(C(C)(C)C)cc1)CCCCC2 [Compound 3, 4-(tert-Butyl)-N-(3-methoxy-6,7,8,9-tetrahydro-5H-benzo[7]annulen-2-yl)benzamide]	–	> 30	–	–
COc1cc2c(cc1NC(=O)c1c[nH]nc1C)CCCCC2 [Compound 69, N-(3-methoxy-6,7,8,9-tetrahydro-5H-benzo[7]annulen-2-yl)-3-methyl-1H-pyrazole-4-carboxamide]	3.1	> 30	–	–
COc1cc2c(cc1NC(=O)c1ccc(C3(O)CCC3)cc1)CCCCC2 [Compound 66, 4-(1-Hydroxycyclobutyl)-N-(3-methoxy-6,7,8,9-tetrahydro-5H-benzo[7]annulen-2-yl)benzamide]	> 10	> 30	–	–
CC(C)(C)c1ccc(C(=O)Nc2cc3c(cc2O)CCCCC3)cc1 [Compound 15, 4-(tert-butyl)-N-(3-hydroxy-6,7,8,9-tetrahydro-5H-benzo[7]annulen-2-yl)benzamide]	0.4	> 30	–	–

Compound	EC90 (Chikungunya virus; [2]) [µM]	CC50 [1] [µM]	EC90 (Chikungunya virus; [3]) [µM]	EC90 (Chikungunya virus; concentration required for 90% inhibition of CHIKV, read-out: EC90 (μM) CHIKV) [µM]
COc1cc2c(cc1NC(=O)c1cnc(C)cn1)CCCCC2 [Compound 81, N-(3-methoxy-6,7,8,9-tetrahydro-5H-benzo[7]annulen-2-yl)-5-methylpyrazine-2-carboxamide]	–	> 30	> 10	–
CC(C)(C)c1ccc(C(=O)Nc2cc3c(cc2[N+](=O)[O-])CCCCC3)cc1 [Compound 22, 4-(tert-butyl)-N-(3-nitro-6,7,8,9-tetrahydro-5H-benzo[7]annulen-2-yl)benzamide]	> 30	> 30	–	–
CC(C)(C)c1ccc(C(=O)Nc2cc3c(cc2C#N)CCCCC3)cc1 [Compound 12, 4-(tert-Butyl)-N-(3-cyano-6,7,8,9-tetrahydro-5H-benzo[7]annulen-2-yl)benzamide]	4.4	17	–	–
CCCc1ccc(C(=O)Nc2cc3c(cc2OC)CCCCC3)cc1 [Compound 57, N-(3-methoxy-6,7,8,9-tetrahydro-5H-benzo[7]annulen-2-yl)-4-propylbenzamide]	> 10	> 30	–	–
COc1cc2c(cc1NC(=O)c1ccc(-c3ccccn3)cc1)CCCCC2 [Compound 67, N-(3-Methoxy-6,7,8,9-tetrahydro-5H-benzo[7]annulen-2-yl)-4-(pyridin-2-yl)benzamide]	> 10	> 30	–	–
COc1cc2c(cc1NC(=O)c1ccc(C(C)(C)O)cc1)CCCCC2 [Compound 46, 4-(2-Hydroxypropan-2-yl)-N-(3-methoxy-6,7,8,9-Tetrahydro-5H-benzo[7]annulen-2-yl)benzamide]	2.45	79.2	–	–
CCn1nc(C(=O)Nc2ccc3c(c2)CCCCC3)cc1C [Compound 26, 1-ethyl-5-methyl-N-(6,7,8,9-tetrahydro-5H-benzo[7]annulen-2-yl)-1H-pyrazole-3-carboxamide]	> 30	> 30	–	–
CCOc1cc2c(cc1NC(=O)c1ccc(C(C)(C)C)cc1)CCCCC2 [Compound 84, 4-(tert-Butyl)-N-(3-ethoxy-6,7,8,9-tetrahydro-5H-benzo[7]annulen-2-yl)benzamide]	5.19	10	–	–
COc1cc2c(cc1NC(=O)CCc1ccc(C(C)(C)C)cc1)CCCCC2 [Compound 68, 3-(4-(tert-Butyl)phenyl)-N-(3-methoxy-6,7,8,9-tetrahydro-5H-benzo[7]annulen-2-yl)propanamide]	> 10	> 30	–	–
COc1cc2c(cc1NC(=O)c1ccc3nonc3c1)CCCCC2 [Compound 40, N-(3-Methoxy-6,7,8,9-tetrahydro-5H-benzo[7]annulen-2-yl)benzo[c][1,2,5]oxadiazole-5-carboxamide]	> 30	> 30	–	–
CCn1cc(C(=O)Nc2cc3c(cc2OC)CCCCC3)c(C(F)(F)F)n1 [Compound 45, 1-Ethyl-N-(3-methoxy-6,7,8,9-tetrahydro-5H-benzo[7]annulen-2-yl)-3-(trifluoromethyl)-1H-pyrazole-4-carboxamide]	2.95	34.5	–	–
3,5-Difluoro-N-(3-methoxy-6,7,8,9-tetrahydro-5H-benzo[7]annulen-2-yl)picolinamide [Compound 77]	–	> 30	–	2.9
COc1cc2c(cc1NC(=O)c1ccc(C(C)(C)C#N)cc1)CCCCC2 [Compound 50, 4-(2-Cyanopropan-2-yl)-N-(3-methoxy-6,7,8,9-tetrahydro-5H-benzo[7]annulen-2-yl)benzamide]	1.16	3.57	–	–
COc1cc2c(cc1NC(=O)c1cnc(C(C)(C)C)nc1)CCCCC2 [Compound 49, 2-(tert-Butyl)-N-(3-methoxy-6,7,8,9-tetrahydro-5H-benzo[7]annulen-2-yl)pyrimidine-5-carboxamide]	2.99	37.6	–	–
CC(C)(C)c1ccc(C(=O)Nc2cc3c(cc2OCc2ccc(C(F)(F)F)cc2)CCCCC3)cc1 [Compound 17, 4-(tert-Butyl)-N-(3-((4-(trifluoromethyl)benzyl)oxy)-6,7,8,9-tetrahydro-5H-benzo[7]annulen-2-yl)benzamide]	> 30	> 30	–	–
CCc1ccc(C(=O)Nc2cc3c(cc2OC)CCCCC3)cc1 [Compound 56, 4-Ethyl-N-(3-methoxy-6,7,8,9-tetrahydro-5H-benzo[7]annulen-2-yl)benzamide]	> 10	> 30	–	–
COc1cc2c(cc1NC(=O)C1CCOCC1)CCCCC2 [Compound 82, N-(3-methoxy-6,7,8,9-tetrahydro-5H-benzo[7]annulen-2-yl)tetrahydro-2H-pyran-4-carboxamide]	> 10	> 30	–	–
COc1cc2c(cc1NC(=O)c1cnc(C)cn1)CCCCC2 [Compound 39, N-(3-Methoxy-6,7,8,9-tetrahydro-5H-benzo[7]annulen-2-yl)-5-methylpyrazine-2-carboxamide]	–	> 30	> 30	–
